Laboratory results from US6593322B1, “Compounds and methods for modulation of estrogen receptors” (Signal Pharmaceuticals, Inc., priority 1999, dated 2003).
Structures can show the parent of a compound that is named as a salt.

What was measured:
U2OS ER-Minus cells = experiment: IL-6 production in ER-Minus (parental) U2OS osteosarcoma cells; type: cell-based, human; conditions: 24 h
human full-length ER-α = target: T1, human full-length ER-α (Homo sapiens, UniProt P03372); experiment: IL-6 production in U2OS osteosarcoma cells stably transfected with ER-α; type: cell-based
T1 construct: expression vectors for human full-length ER-α or ER-β; expressed in transfected cells
T1 sequence (P03372 1-595): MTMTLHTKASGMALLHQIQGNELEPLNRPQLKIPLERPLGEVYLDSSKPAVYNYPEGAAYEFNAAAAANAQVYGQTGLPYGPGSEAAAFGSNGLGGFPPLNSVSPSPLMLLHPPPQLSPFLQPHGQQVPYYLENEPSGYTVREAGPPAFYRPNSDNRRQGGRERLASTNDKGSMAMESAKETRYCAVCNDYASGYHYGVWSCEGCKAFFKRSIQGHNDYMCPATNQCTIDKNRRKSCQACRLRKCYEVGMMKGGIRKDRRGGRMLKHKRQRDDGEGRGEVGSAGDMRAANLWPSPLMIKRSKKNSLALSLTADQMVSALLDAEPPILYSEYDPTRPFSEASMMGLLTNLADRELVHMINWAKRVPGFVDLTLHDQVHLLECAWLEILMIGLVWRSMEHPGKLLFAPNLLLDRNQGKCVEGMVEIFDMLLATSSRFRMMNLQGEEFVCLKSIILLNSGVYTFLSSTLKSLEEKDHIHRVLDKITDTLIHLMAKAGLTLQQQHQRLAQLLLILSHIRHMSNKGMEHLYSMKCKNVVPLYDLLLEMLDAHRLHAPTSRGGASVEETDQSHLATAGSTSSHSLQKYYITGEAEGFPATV

human full-length ER-β = target: T2, human full-length ER-β (Homo sapiens, UniProt Q92731); experiment: IL-6 production in U2OS osteosarcoma cells stably transfected with ER-β; type: cell-based
T2 construct: expression vectors for human full-length ER-α or ER-β; expressed in transfected cells
T2 sequence (Q92731 whole entry): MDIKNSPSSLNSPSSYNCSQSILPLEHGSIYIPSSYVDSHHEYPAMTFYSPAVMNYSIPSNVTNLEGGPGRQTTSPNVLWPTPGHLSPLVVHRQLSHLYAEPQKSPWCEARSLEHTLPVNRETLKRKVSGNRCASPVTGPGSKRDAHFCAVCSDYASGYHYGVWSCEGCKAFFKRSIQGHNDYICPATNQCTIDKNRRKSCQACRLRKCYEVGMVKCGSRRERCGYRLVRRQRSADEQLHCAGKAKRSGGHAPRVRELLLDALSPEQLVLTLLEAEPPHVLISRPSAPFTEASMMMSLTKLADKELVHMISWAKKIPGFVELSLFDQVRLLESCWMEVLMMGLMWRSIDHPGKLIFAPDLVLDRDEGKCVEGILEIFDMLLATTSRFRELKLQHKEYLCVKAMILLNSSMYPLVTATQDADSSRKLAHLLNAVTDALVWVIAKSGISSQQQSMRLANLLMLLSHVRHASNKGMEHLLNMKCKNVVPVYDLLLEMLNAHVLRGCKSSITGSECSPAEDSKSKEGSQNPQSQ

[1] = IL-6 after 10 ng/ml IL-1β and 10 ng/ml TNF-α, 50% inhibition relative to DMSO control

Molecule | IC50 (human full-length ER-α) [µM] | IC50 (human full-length ER-β) [µM] | melting point [°C] | IC50 (U2OS ER-Minus cells; [1]) [µM] | IC50 (U2OS ER-Minus cells; Homo sapiens, U2OS) [µM]
4-Hydroxy-Tamoxifen |  |  |  | > 1 | 
C[C@]12CC[C@@H]3c4ccc(O)cc4CC[C@H]3[C@@H]1CC[C@@H]2O [17-β-Estradiol] |  |  |  | > 1 | 
Oc1ccc2c(c1)CCN(c1ccc(F)cc1)C2c1ccc(OCCN2CCCCC2)cc1 (stereo not shown) [Compound A, reference compound] | 0.001 | > 10 |  |  | > 10
O=C(c1ccc(OCCN2CCCCC2)cc1)c1c(-c2ccc(O)cc2)sc2cc(O)ccc12 [Raloxifene Hydrochloride] |  |  |  |  | > 1

Now from value to molecule, other results behind:

IC50 (human full-length ER-α) [µM] | IC50 (human full-length ER-β) [µM] | melting point [°C] | Molecule | IC50 (U2OS ER-Minus cells; [1]) [µM] | IC50 (U2OS ER-Minus cells; Homo sapiens, U2OS) [µM]
> 1 | 0.107 |  | Oc1ccc2c(c1)CCN(c1ccccc1)C2Cc1ccc(Br)cc1 (stereo not shown) [Example 2, 1-(4-Bromobenzyl)-2-phenyl-1,2,3,4-tetrahydroisoquinolin-6-ol] |  | > 1
2.01 | 0.285 |  | Oc1ccc2c(c1)CCN(c1ccc(F)cc1)C2Cc1ccc(OCCN2CCCCC2)cc1 (stereo not shown) [Example 5] |  | > 10
10 | 5 |  | Oc1ccc2c(c1)CCCN(c1ccc(F)cc1)C2Cc1ccc(OCCN2CCCCC2)cc1 (stereo not shown) [Example 8] |  | > 10
 |  | 47 to 49 | CCN(CCOc1ccc(CC2c3ccc(O)cc3CCN2c2ccc(F)cc2)cc1)Cc1ccccc1 (stereo not shown) [Example 21, 1-{4-[(2-(N-Benzyl-N-ethyl)amino)ethoxy]benzyl}-2-(4-fluorophenyl)-1,2,3,4-tetrahydroisoquinolin-6-ol] |  | 
